{"source": "patent US20040024033A1", "about": "(priority 1998, published 2004)", "key": {"[1]": {"assay": "Two-week intravenous comparative toxicity study in mice", "format": "in vivo, normal female BALB/c mice", "protocol": "In order to assess the sub-chronic intravenous toxicity of epothilone B, a non-GLP two-week i.v. toxicity study in non-tumor bearing, normal female BALB/c mice is conducted, involving analysis of mortality, clinical signs, body weight, food consumption, hematology, clinical biochemistry, urinalysis, and organ weights as well as macro and microscopic examinations. The study is based on two different dosing regimens of epothilone B of 3 mg/kg and 10 mg/kg, respectively, administered on days 1 and 8 (8 animals per group). Half of the animals are killed on day 15 (main group) and necropsy is performed. For the other half (recovery group) a recovery period of 5 weeks is allowed after administration of the second dose before sacrifice and subsequent necropsy on day 43."}, "[2]": {"system": "human KB-8511 epidermoid carcinoma", "format": "in vivo, female BALB/c nude mice", "protocol": "Female or male BALB/c nu/nu (nude) mice are kept under sterile conditions (10 to 12 mice per Type III cage) with free access to food and water. Mice weigh between 20 and 25 grams at the time of tumor implantation. Tumors are established by subcutaneous injection of cells (minimum 2×10^6 cells in 100 μl PBS or medium) in carrier mice (4-8 mice per cell line). The resulting tumors are serially passaged for a minimum of three consecutive transplantations prior to start of treatment. Tumor fragments (approx. 25 mg) are implanted s.c. into the left flank of animals with a 13-gauge trocar needle while the mice are exposed to Forene (Abbott, Switzerland) anesthesia.\nTumor growth and body weights are monitored once or twice weekly. All treatments are administered intravenously (i.v.) and are initiated when a mean tumor volume of approximately 100 to 250 mm^3 is attained, depending upon the tumor type. Tumor volumes are determined using the formula […] (see Cancer Chemother. Pharmacol. 24:148-154, [1989]). Treatments with epothilone B vary the dose and the frequency of administration. Comparator agents are administered according to previously determined optimal treatment regimens. In addition to presenting changes in tumor volumes over the course of treatment, antitumor activity is expressed as T/C% (mean increase of tumor volumes of treated animals divided by the mean increase of tumor volumes of control animals multiplied by 100). Tumor regression (%) represents the smallest mean tumor volume compared to the mean tumor volume at the start of treatment, according to the formula Regression (%)=(1−Vend/Vstart)×100 (Vend=final mean tumor volume, Vstart=mean tumor volume at the start of treatment. Any animals in which the tumor has reached a size exceeding approximately 1.5 to 2.5 cm^3 are sacrificed. Details can be found below.\nTumor fragments of approximately 25 mg are implanted into the left flank of each female nude mouse (n=8 per group). Treatments are started on day 13 after tumor transplantation. epothilone B is administered once at 4 mg/kg, i.v. on day 13, or once per week at 4, 2 or 1 mg/kg, i.v., (on days 13, […] and 27). TAXOL® is administered i.v. at 20 mg/kg/day, every second day for 5 treatments (days 13, 15, 17, 19 and 21). Antitumor activity is expressed as T/C% (mean increase of tumor volumes of treated animals divided by the mean increase of tumor volumes of control animals multiplied by 100). Tumor regression (%) represents the final mean tumor volume compared to the mean tumor volume at the start of treatment. Changes (Δ) in Tumor volumes represent the tumor volume on the last treatment day minus the tumor volume on the first treatment day. Statistical analyses on Δ tumor volumes uses Dunnett's test to compare treatment groups to controls. […]"}, "[3]": {"conditions": "3 mg/kg i.v. on days 1 and 8, day 15"}, "[4]": {"conditions": "10 mg/kg i.v. on days 1 and 8, day 15"}}, "note": "Read-outs that look alike come from different tables or passages of the source.", "data": [{"smiles": "C/C(=C\\c1csc(C)n1)[C@@H]1C[C@@H]2O[C@]2(C)CCC[C@H](C)[C@H](O)[C@@H](C)C(=O)C(C)(C)[C@@H](O)CC(=O)O1", "note": "[epothilone B]", "values": [{"measurement": "Mortalities throughout the treatment period (days 1-14)", "setting": "[1]; 3 mg/kg i.v. on days 1 and 8", "result": "No mortalities"}, {"measurement": "Atrophy of the thymus (microscopic)", "setting": "[1]; [3]", "result": "moderate"}, {"measurement": "Hematology: leukocytes", "setting": "[1]; [3]", "result": "reduction in the number of leukocytes"}, {"measurement": "Sternal bone marrow, microscopic", "setting": "[1]; [3]", "result": "minimal to slight erythroid and myeloid atrophy"}, {"measurement": "Survival of the recovery group", "setting": "[1]; 3 mg/kg i.v. on days 1 and 8, to day 43", "result": "all animals of the recovery group survive until the end of the study"}, {"measurement": "Body weight", "setting": "[1]; 3 mg/kg i.v. on days 1 and 8, treatment period", "result": "body weight loss at the 3 mg/kg dose is only apparent in the second week"}, {"measurement": "Mortalities throughout the treatment period (days 1-14)", "setting": "[1]; 10 mg/kg i.v. on days 1 and 8", "result": "No mortalities"}, {"measurement": "Atrophy of the thymus (microscopic)", "setting": "[1]; [4]", "result": "marked"}, {"measurement": "Spleen, microscopic", "setting": "[1]; [4]", "result": "minimal lymphoid atrophy"}, {"measurement": "Sternal bone marrow, microscopic", "setting": "[1]; [4]", "result": "minimal to slight myeloid hypoplasia"}, {"measurement": "Hematology: leukocytes", "setting": "[1]; 10 mg/kg i.v. on days 1 and 8, day 15, effect more pronounced", "result": "reduction in the number of leukocytes"}, {"measurement": "Body weight", "setting": "[1]; 10 mg/kg i.v. on days 1 and 8, first and second week", "result": "Body weight loss is observed for all animals"}, {"measurement": "Intestinal mucosa (small and large intestine), microscopic", "setting": "[1]; both dose levels (3 and 10 mg/kg), day 15", "result": "Minimal single cell necrosis"}, {"measurement": "mice with undetectable tumors at the end of the experiment", "setting": "[2]; 2 mg/kg/week", "result": "1/8"}, {"measurement": "% Body Weight Change", "setting": "[2]; 4 mg/kg, i.v. once per week", "result": "−5±7", "unit": "%"}, {"measurement": "T/C", "setting": "[2]; 4 mg/kg, i.v. once per week", "result": "Regres-"}, {"measurement": "mice with undetectable tumors at the end of the experiment", "setting": "[2]; 4 mg/kg/week", "result": "5/8"}]}]}
